In US9381224B2, “Plant based formulation for the prevention and management of metabolic syndrome and cardiovascular disease mortality risk” (priority 2014, dated 2016):

System: Metabolic Syndrome cases
Assay: Clinical study in diagnosed Metabolic Syndrome cases
Type: in vivo, human
Experimental: The study population consisted of 128 diagnosed Metabolic Syndrome cases (76 Men and 52 Women), aged 52.81±9.68 years at study entry. The cases were diagnosed as per criteria given by WHO for classification and diagnosis of Metabolic Syndrome.
After preliminary screening the subjects showing association with 3 or more than 3 above factors were selected. The clinical trial was conducted in three groups—
44 cases were treated with Ayurvedic formulation.
Body mass index (BMI) was calculated following formula {weight (kg)÷ height (m2)} and anthropometer was used for circumference measurement. Lipid profile including triglyceride was estimated by standard laboratory kits. TNF-[…], interleukin-6 was measured by ELISA kit, adiponectin by radioimmunoassay kit. CRP by kit for quantitative nephelometric determination of CRP in human serum or plasma by Turbox/Turbox analyzer and ELISA activity assay kit for Leptin level. Subjects suffering from any other disease known to affect the study parameters were excluded from the series. Upon recruitment all subjects gave informed written consent.

## CCCCCCCCCCC[C@@H](C[C@@H]1OC(=O)[C@H]1CCCCCC)OC(=O)[C@H](CC(C)C)NC=O [Conventional drug, Orlistat]
After 3 months
  HbA1c: 5.93%
  PAI-1: 37.42 ng/mL
  tPA-1: 19.45 ng/mL
After 6 months
  Adiponectin: 7.39 µg/mL
  Apolipo (B): 152.87 mg/dL
  Diastolic blood pressure: 86.24 mmHg
  Endothelin: 988.73 pg/mL
  Fasting blood glucose: 108.42 mg/dL
  HDL-c: 43.02 mg/dL
  HbA1c: 5.24%
  Interleukin-6: 2.12 pg/mL
  LDL-c: 114.32 mg/dL
  Leptin: 25.73 µg/L
  PAI-1: 32.98 ng/mL
  Postprandial blood glucose: 179.45 mg/dL
  Systolic blood pressure: 124.87 mmHg
  TNF-α: 488.90 pg/mL
  Total cholesterol: 216.92 mg/dL
  Triglycerides: 287.93 mg/dL
  hs CRP: 3.64 mg/L
  tPA-1: 18.46 ng/mL
Gender F, After 3 months
  CD36: 156.42 ng/mL
Gender F, After 6 months
  CD36: 155.90 ng/mL
Gender F, Initial
  CD36: 142.90 ng/mL
Gender M, After 3 months
  CD36: 173.64 ng/mL
Gender M, After 6 months
  CD36: 196.22 ng/mL
Initial
  Adiponectin: 6.92 µg/mL
  Apolipo (B): 188.73 mg/dL
  Diastolic blood pressure: 89.04 mmHg
  Endothelin: 1286.93 pg/mL
  Fasting blood glucose: 136.42 mg/dL
  HDL-c: 41.62 mg/dL
  HbA1c: 6.82%
  Interleukin-6: 2.25 pg/mL
  LDL-c: 139.72 mg/dL
  Leptin: 36.42 µg/L
  PAI-1: 40.12 ng/mL
  Postprandial blood glucose: 231.68 mg/dL
  Systolic blood pressure: 136.68 mmHg
  TNF-α: 622.45 pg/mL
  Total cholesterol: 247.90 mg/dL
  Triglycerides: 354.86 mg/dL
  hs CRP: 4.93 mg/L
  tPA-1: 21.23 ng/mL
